{
  "source": "patent US5250426A",
  "about": "“Molecules with antibody combining sites that induce asymmetry” (The Scripps Research Institute, priority 1991, dated 1993)",
  "test_system": "monoclonal antibodies induced by Compound A",
  "experiment": "Inhibition of the antibody-catalyzed hydrolysis of Compound 1 by free Compound A",
  "type": "biochemical, mice",
  "details": "all three monoclonal antibodies",
  "description": "The production of Compound 2 by a monoclonal antibody composition of this invention was assayed at a concentration of 20 μM monoclonal antibody and 1.5 mM Compound 1 in 10 percent dimethylsulfoxide (DMSO)/ATE buffer (0.52M ACES, 0.52M Tris, 0.01M ethanolamine pH 9.0) at 25° C. The initial rate of hydrolysis of Compound 1 by the monoclonal antibodies produced by three hybridomas followed Michaelis-Menten kinetics (Table 1 hereinafter).",
  "data": [
    {"compound": "CC1(OP(=O)(O)Cc2ccc(CCN)cc2)CCCCC1", "note": "[Compound A]", "values": [
      {"measurement": "inhibition of the hydrolytic reaction by addition of free Compound A", "result": "extensive inhibition"}
    ]}
  ]
}
